From patent US20160017286A1, “IKAROS INHIBITION TO AUGMENT ADOPTIVE T CELL TRANSFER” (THE TRUSTEES OF THE UNIVERSITY OF PENNSYLVANIA, priority 2013, published 2016)

Assays:
[1] = test system: human CD8 T cells bearing anti-mesothelin CAR; experiment: IL2 and IFNγ production in human anti-mesothelin CAR T cells stimulated with mesothelin-coated beads; type: cell-based; details: lenalidomide 10 uM vs absence
[2] = test system: human CD4 and CD8 T cells; experiment: IL2 and IFNγ production (flow cytometry) in human T cells stimulated with anti-CD3/anti-CD28 beads; type: cell-based; details: lenalidomide 10 uM vs absence

Nc1cccc2c1CN(C1CCC(=O)NC1=O)C2=O (stereo not drawn) [lenalidomide]
IFNγ production in human CD8 T cells bearing anti-mesothelin CAR [1]: increased both IL2 and IFNγ production
IL2 production in human CD8 T cells bearing anti-mesothelin CAR [1]: increased both IL2 and IFNγ production
IFNγ production in human CD8 T cells bearing anti-mesothelin CAR ([1]; listed as Lenalidomide): augments IL2 and IFN levels
IL2 production in human CD8 T cells bearing anti-mesothelin CAR ([1]; listed as Lenalidomide): augments IL2 and IFN levels
IFNγ production in human CD4+ T cells [2]: increased IL2 and IFNγ production
IFNγ production in human CD8+ T cells [2]: increased IL2 and IFNγ production
IL2 production in human CD4+ T cells [2]: increased IL2 and IFNγ production
IL2 production in human CD8+ T cells [2]: increased IL2 and IFNγ production
IFNγ production in human CD4+ T cells ([2]; listed as Lenalidomide): augments IL2 and IFN levels
IFNγ production in human CD8+ T cells ([2]; listed as Lenalidomide): augments IL2 and IFN levels
IL2 production in human CD4+ T cells ([2]; listed as Lenalidomide): augments IL2 and IFN levels
IL2 production in human CD8+ T cells ([2]; listed as Lenalidomide): augments IL2 and IFN levels
